# Measured values from US20200268703A1, “MEDICINE FOR TREATING ADVANCED OR RECURRENT CANCER PATIENT BEING NON-RESPONSIVE OR NON-TOLERANT TO STANDARD CHEMOTHERAPY AND INCURABLE AND UNRESECTABLE” (HYOGO COLLEGE OF MEDICINE, priority 2017, published 2020).
# Tests used:
# [1] = tested on: advanced or recurrent oral cavity cancer; experiment: Tumor immunity risk index value, OS and disease course in oral cavity cancer patients given propagermanium; assay type: in vivo, human; conditions: for OS: BSC median 46 days
# Procedure: (§1) 30 mg of propagermanium [trade name: SEROCION (registered trademark), produced by SANWA KAGAKU KENKYUSHO CO., LTD.] was administered orally in three divided doses per day after meals to 4 patient cases (PG-1 to PG-4) who were diagnosed as advanced or recurrent oral cavity cancer which is non-responsive or non-tolerant to the standard chemotherapy and incurable and unresectable, a 2 patient cases (PG-5 and PG-6) who were diagnosed as advanced or recurrent gastric cancer which is non-responsive or non-tolerant to the standard chemotherapy [gastric cancer treatment guideline fourth edition (edited by Japan Gastric cancer Association, revised in May 2014)] and incurable and unresectable, and 5 healthy person cases (PG-7 to PG-11). 7.5 mL of peripheral blood of the cancer patients (PG-1 and PG-3: only before administration, PG-5 and PG-6: before administration and only 28th day after a start of administration) and healthy persons (all: only before the administration), were collected by a BD vacutainer blood collection tube at the time before the administration of the propagermanium and on 28th and 56th days after starting the administration. Thereafter, and the peripheral blood was centrifuged (1500 G for 15 minutes) to obtain the peripheral blood mononuclear cells (PBMC). The obtained peripheral blood mononuclear cells were fixed and stained using a T cell surface marker and a mouse IgG anti-human antibody against intracellular keratin. The stained cells were analyzed by flow cytometry using a Spectral Cell Analyzer (SP-6800, manufactured by SONY).
# (§2) Regarding the T cells and the cytotoxic T cells, among living cells, CD45 positive and CD3 positive cells are separated to obtain T cells, and among the CD45 positive and CD3 positive cells, CD8 positive and CD4 negative cells are separated to obtain the cytotoxic T cells. The proportion of the cytotoxic T cells in the T cells was calculated.
# (§3) In the circulating tumor cells in blood, in order to label the cytokeratin present inside the cells, after using Perm Buffer reagent (#421403, produced by BioLegend), staining was performed using a pankeratin antibody (#4523, produced by Cell Signaling). Since the circulating tumor cells in blood are larger than lymphocytes, when flow cytometry is performed, cells were selected in a wider range than in the selection of normal lymphocytes. After selecting cells negative in staining using Ghost Dye Violet 450 as living cells, pankeratin positive cells were regarded as the circulating tumor cells in blood, and the number of the pankeratin positive cells in 10000 peripheral blood mononuclear cells was calculated.
# (§4) The calculated number of the pankeratin positive cells and the proportion of cytotoxic T cells in the T cells is substituted into Expression (1) below.
# (§5) Number of pankeratin positive cells (pieces)/Proportion of cytotoxic T cells in T cells (%)/10 (I)
# (§6) The disease of each patient was determined by an attending physician based on results of endoscopy, computed tomography (CT) examination, positron emission tomography (PET)-CT examination, magnetic resonance imaging (MRI) examination, X-ray (X-P) examination, and blood biochemistry examination including the major markers.
# [2] = tested on: advanced or recurrent gastric cancer; experiment: Tumor immunity risk index value and disease course in gastric cancer patients given propagermanium; assay type: in vivo, human; conditions: for Disease course / Tumor immunity risk index value: 28th day after starting administration
# Procedure: as §1, §2, §3, §4, §5, §6
# [3] = tested on: human gastric cancer cell line MKN45 (MKN45 KO cells); experiment: Apoptosis-inducing activity by PBMC of oral cavity cancer patient after administration of propagermanium; assay type: cell-based; conditions: for Increase of apoptosis-inducing activity compared to before starting the administration: time point of 48 hours
# Procedure: MKN45 KO cells obtained by fluorescently labeling human gastric cancer cell line MKN45 with Kurabira Orange (1×10^4 cells) were cultured using an RPMI 1640 medium containing 10% FBS in 35 mm dishes (Day 0). On next day (Day 1), the medium was changed to an F12-K medium (2 mL) containing 10% FBS, and in Experimental Example 5, a suspension of peripheral blood mononuclear cells (1×10^6 cells) separated from peripheral blood of the oral cavity cancer patient of PG-4 before the administration of the propagermanium and on 28th and 56th days after the administration in F12-K medium (1 mL) is added to the culture dish. Furthermore, 3 μL of IncuCyte (registered trademark) Caspase-3/7 Green Apoptpsis Reagent (Cat No. 4440, produced by Essen BioScience) was added and cultured. Time-lapse photography was performed every 10 minutes for 48 hours, by using BioStation (produced by Nikon Corporation) (Days 1 to 3). An animation was created from result of photography for 48 hours, and the numbers of viable gastric cancer cells (with orange fluorescence) at and apoptosis-induced gastric cancer cells (with green fluorescence) at the time points of 0, 8, 16, 24, 32, 40, and 48 hours were calculated respectively. When calculating the number of cells, 100 to 150 cells were targeted at time point of 48 hours, and cells of 4 to 5 fields of view were summed at 200 times observation by a microscope at each time point. In addition, at each time point, only cells that adhered to the culture dish and could be continuously observed were targeted for counting, and cells that were slightly out of an imaging field of stratified cells were excluded from counting.
# The apoptosis-inducing activity (%) at each time point was calculated by using Expression (II) below.
# {Number of apoptosis-induced gastric cancer cells/(Number of viable gastric cancer cells+Number of apoptosis-induced gastric cancer cells)}×100 (II)
# [4] = patient PG-2 (oral cavity cancer)
substance,measurement,setting,value
propagermanium,Evaluation of the administration (effective / ineffective),[1]; patient PG-1 (oral cavity cancer),ineffective
same,OS,"[1]; patient PG-1 (oral cavity cancer), administration discontinued midway",39 days
same,Disease course,"[1]; patient PG-1 (oral cavity cancer), from the start of administration",disease got worse
same,Evaluation of the administration (effective / ineffective),[1]; [4],effective
same,Disease course,"[1]; patient PG-2 (oral cavity cancer), 28th day after starting administration",disease was controlled
same,Tumor immunity risk index value,"[1]; patient PG-2 (oral cavity cancer), 28th day after starting administration, before 0.27",1.70
same,Tumor immunity risk index value,"[1]; patient PG-2 (oral cavity cancer), 56th day after starting administration, before 0.27",4.93
same,OS,[1]; [4],105 days
same,Evaluation of the administration (effective / ineffective),[1]; patient PG-3 (oral cavity cancer),ineffective
same,OS,"[1]; patient PG-3 (oral cavity cancer), administration discontinued midway",36 days
same,Disease course,"[1]; patient PG-3 (oral cavity cancer), from the start of administration",disease got worse
same,Evaluation of the administration (effective / ineffective),[1]; patient PG-4 (oral cavity cancer),effective
same,Disease course,"[1]; patient PG-4 (oral cavity cancer), 28th and 56th days after starting administration",disease was controlled at any time point
same,Tumor immunity risk index value,"[1]; patient PG-4 (oral cavity cancer), 28th day after starting administration, before 2.07",0.49
same,Tumor immunity risk index value,"[1]; patient PG-4 (oral cavity cancer), 56th day after starting administration, before 2.07",1.77
same,OS,"[1]; patient PG-4 (oral cavity cancer), counted before the chemotherapy intervention",85 days
same,Evaluation of the administration (effective / ineffective),[2]; patient PG-5 (gastric cancer),ineffective
same,Disease course,[2]; patient PG-5 (gastric cancer),disease progressed
same,Tumor immunity risk index value,"[2]; patient PG-5 (gastric cancer), before 5.04",9.55
same,Evaluation of the administration (effective / ineffective),[2]; patient PG-6 (gastric cancer),effective
same,Disease course,[2]; patient PG-6 (gastric cancer),disease was controlled
same,Tumor immunity risk index value,"[2]; patient PG-6 (gastric cancer), before 41.12",0.31
same,Increase of apoptosis-inducing activity compared to before starting the administration,[3]; 28th day after starting administration,approximately 3.1 times
same,Increase of apoptosis-inducing activity compared to before starting the administration,[3]; 56th day after starting administration,approximately 3.7 times
same,Apoptosis-inducing activity,"[3]; PBMC of patient PG-4, 28th day after starting administration, culture for 0 hours",0.00%
same,Apoptosis-inducing activity,"[3]; PBMC of patient PG-4, 28th day after starting administration, culture for 48 hours, before administration 4.00",12.50%
same,Apoptosis-inducing activity,"[3]; PBMC of patient PG-4, 56th day after starting administration, culture for 0 hours",0.00%
same,Apoptosis-inducing activity,"[3]; PBMC of patient PG-4, 56th day after starting administration, culture for 48 hours, before administration 4.00",14.60%
